{"source": "patent US20230414615A1", "about": "“PYRIMIDINONE COMPOUNDS FOR TREATING ACUTE INFLAMMATION” (TES Pharma S.r.l., priority 2022, published 2023)", "key": {"Kupffer cells [1]": {"tested_on": "Kupffer cells", "experiment": "Cytokine secretion in Kupffer cells following LPS-induced inflammation (Bio-Plex)", "type": "cell-based, mouse", "conditions": "LPS 50 ng/mL", "source_text": "[…] Cells treated with DMSO were used as control at the final concentration of 0.5% in medium. All the wells were normalized with DMSO at 0.5% final concentration. The supernatant was collected to measure cytokine secretion using a Bio-Plex Pro mouse cytokine 23-plex assay system (cat #M60009RDPD) using a Bio-Plex Instrument. The cells were washed once with PBS, and then lysed to extract total RNA for performing RT-PCR to evaluate ACMSD modulation of IL-10, SIRT1, and STAT3 gene expression.\nAll cytokine secretion values were normalized to the luminescent signal relative to the measuring of the cellular ATP (CellTiter-Glo cat #G7571))."}, "Kupffer cells [2]": {"tested_on": "Kupffer cells", "experiment": "Gene expression (RT-PCR) in Kupffer cells", "type": "cell-based, mouse", "procedure": "200,000 Kupffer cells were plated out in a 24 well plate and the ACMSD inhibitor (e.g. compounds of present disclosure, compound of Formula I, Ia, Ib, and II) (5 μM) was added 1 hr before the cells were stimulated with LPS overnight 50 ng/ml (1 mg/mL stock solution in H2O, dispensed at 50 ng/mL in the well) final concentration. Cells treated with DMSO were used as control at the final concentration of 0.5% in medium. All the wells were normalized with DMSO at 0.5% final concentration. The supernatant was collected to measure cytokine secretion using a Bio-Plex Pro mouse cytokine 23-plex assay system (cat #M60009RDPD) using a Bio-Plex Instrument. The cells were washed once with PBS, and then lysed to extract total RNA for performing RT-PCR to evaluate ACMSD modulation of IL-10, SIRT1, and STAT3 gene expression.\nBriefly, total RNA was extracted from the cells using the manufacturer's protocol for Qiagen RNeasy Plus Mini Kit (cat. 74134). The total RNA concentration was quantified using an Implen Instrument, and the purity was evaluated by measuring the ratio of A260/A280.\nTotal RNA (1 μg) was reverse transcribed using the manufacturer's protocol for SuperScript IV VILO Master Mix (ThermoFisher cat. #. 11756500). Real-time PCR was then performed in CFX 96 Real Time System (Bio-Rad) as follows: denaturation at 95° C. for 2 minutes, followed by 40 cycles at 95° C. for 10 s, and hybridization at 60° C. for 20 s. QPCR was performed using the 2× QuantiNova SYBR Green PCR Master Mix (Qiagen). Mouse β2 microglobulin (m 02M) was used as a reference gene."}, "Kupffer cells [3]": {"tested_on": "Kupffer cells", "experiment": "NAD+ biosynthesis in Kupffer cells", "type": "cell-based"}, "primary hepatocytes": {"tested_on": "primary hepatocytes", "experiment": "NAD+ biosynthesis in primary hepatocytes", "type": "cell-based"}, "[4]": {"tested_on": "kidney proximal tubular HK2 cells", "experiment": "NAD+ biosynthesis in kidney proximal tubular HK2 cells", "type": "cell-based"}, "[5]": {"tested_on": "mouse primary hepatocytes", "experiment": "SOD2 activity in mouse primary hepatocytes", "type": "cell-based", "conditions": "treatment for 24 hrs; stated as dose-dependent"}, "[6]": {"tested_on": "co-culture primary hepatocytes and Kupffer cells", "experiment": "IL-6 secretion in co-culture of primary hepatocytes and Kupffer cells following LPS-induced inflammation", "type": "cell-based", "conditions": "LPS 50 ng/mL; stated as dose-dependent"}, "HK2 cells": {"tested_on": "HK2 cells", "experiment": "TGF-β-induced fibrosis in HK2 (renal tubular) cells", "type": "cell-based", "procedure": "MATERIALS AND METHODS: Treatment with Compound I-18 in presence of LPS for 24 h has been performed to evaluate anti inflammatory properties and M1 to M2 transition. Renal tubular cells were stimulated with Compound I-18 and TGFβ for 16 hrs to evaluate the expression of genes involved in fibrosis. Compound 1-18 (50 mg/kg) was dosed daily in mice treated with LPS 15 mg/kg. Survival percentage and liver gene modulation has been monitored in Sham groups, LPS and LPS+Compound 1-18 groups (n=8). 12-15 week old mice underwent CLP (50% ligation, thru-and-thru puncture with 21G needle) to evaluate CLP-induced sepsis. Compound I-18 was dosed at the concentration of 50 mg/kg for 7 days from CLP. Survival percentage and expression of genes involved in renal inflammation has been monitored."}, "liver and kidneys": {"tested_on": "liver and kidneys", "experiment": "Transcription of mitochondrial genes in liver and kidneys after administration of ACMSD inhibitors", "type": "in vivo"}, "[7]": {"tested_on": "preclinical model of liver and kidney diseases", "experiment": "Preclinical model of liver and kidney diseases (NASH, AKI)", "conditions": "in vivo"}, "[8]": {"conditions": "cell system not restated (follows HK2 TGF-β experiment)"}}, "data": [{"molecule": "N#Cc1c(-c2cccs2)nc(SCc2cccc(CC(=O)O)c2)[nH]c1=O", "note": "[Compound I-18]", "values": [{"measurement": "secretion of IL-1β", "setting": "Kupffer cells [1]; 1 μM", "result": "reduces"}, {"measurement": "secretion of IL-6", "setting": "Kupffer cells [1]; 1 μM, incubation time 24 h", "result": "reduced"}, {"measurement": "secretion of TNFα", "setting": "Kupffer cells [1]", "result": "reduces"}, {"measurement": "secretion of IL-6, dose dependence of the reduction", "setting": "Kupffer cells [1]; incubation time 24 h", "result": "in a dose-dependent manner"}, {"measurement": "expression of SIRT-1", "setting": "Kupffer cells [2]", "result": "increases"}, {"measurement": "QPRT expression", "setting": "Kupffer cells [2]; inflammatory conditions (LPS at 50 ng/mL), beyond basal conditions", "result": "increases"}, {"measurement": "expression of IL-10", "setting": "Kupffer cells [2]; stated as dose-dependent", "result": "increases"}, {"measurement": "expression of STAT3", "setting": "Kupffer cells [2]; stated as dose-dependent", "result": "increases"}, {"measurement": "NAD+ biosynthesis", "setting": "Kupffer cells [3]", "result": "restores"}, {"measurement": "NAD+ biosynthesis", "setting": "primary hepatocytes", "result": "restores"}, {"measurement": "NAD+ biosynthesis", "setting": "[4]", "result": "restores"}, {"measurement": "activity of mitochondrial superoxide dismutase 2, SOD2", "setting": "[5]", "result": "increases"}, {"measurement": "secretion of IL-6", "setting": "[6]", "result": "reduced"}, {"measurement": "SMAD4 expression", "setting": "HK2 cells; TGF-β-induced fibrosis in HK2 cells", "result": "less modulated"}, {"measurement": "SMAD3", "setting": "HK2 cells; both preventive and therapeutic treatment, TGF-β-induced fibrosis in HK2 cells", "result": "dose-dependent reduction"}, {"measurement": "expression of TIMP2", "setting": "HK2 cells; [8]", "result": "dose-dependent reduction"}, {"measurement": "expression of fibronectin", "setting": "HK2 cells; [8]", "result": "dose-dependent reduction"}, {"measurement": "in vitro fibrosis in renal cells", "setting": "HK2 cells; renal tubular cells stimulated with TGFβ for 16 hrs", "result": "reduced"}, {"measurement": "expression of the same genes (Mcad, Cpt1a, Ndufa2, Atp5g1, Sod2) in the kidneys", "setting": "liver and kidneys; kidneys", "result": "unaffected"}, {"measurement": "transcription of the mitochondrial genes Mcad, Cpt1a, Ndufa2, Atp5g1 and Sod2 in the liver", "setting": "liver and kidneys; liver", "result": "induces"}, {"measurement": "effects in preclinical model of liver and kidney diseases, such as NASH and AKI", "setting": "[7]", "result": "protective effects"}]}]}
